Data as given in patent US8378092B2, “Chlorothiophene-amides as inhibitors of coagulation factors Xa and thrombin” (Sanofi, priority 2008, dated 2013).
Structures can show the parent of a compound that is named as a salt.

Assays:
[1] = molecular target: T1, human coagulation factor Xa (Homo sapiens, UniProt P00742); experiment: Chromogenic F Xa inhibition assay (substrate S-2765); format: biochemical; conditions: purified human factor Xa, chromogenic substrate S-2765 62.5 μM, 37° C., mean of duplicates
T1 construct: purchased Enzyme Research Laboratories HFXa

human thrombin = human thrombin (Homo sapiens, UniProt P00734); experiment: Chromogenic thrombin inhibition assay (substrate S-2238); format: biochemical; conditions: purified human thrombin, chromogenic substrate S-2238 83 μM, 37° C., mean of duplicates

T1 sequence (P00742 235-488 limits assumed): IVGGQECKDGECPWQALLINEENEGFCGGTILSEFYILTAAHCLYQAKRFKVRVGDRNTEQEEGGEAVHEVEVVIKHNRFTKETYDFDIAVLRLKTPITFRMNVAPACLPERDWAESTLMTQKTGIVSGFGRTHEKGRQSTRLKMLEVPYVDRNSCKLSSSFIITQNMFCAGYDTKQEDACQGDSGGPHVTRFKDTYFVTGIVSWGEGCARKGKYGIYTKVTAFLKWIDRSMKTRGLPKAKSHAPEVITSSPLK
T1 sequence (P00742 41-179 partner limits assumed): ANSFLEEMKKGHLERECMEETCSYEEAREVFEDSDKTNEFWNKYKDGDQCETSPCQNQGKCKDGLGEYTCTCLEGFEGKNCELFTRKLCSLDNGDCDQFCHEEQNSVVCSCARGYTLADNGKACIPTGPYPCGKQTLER

IC50 [1]	IC50 (human thrombin)	SMILES
9.8 nM	250 nM	CCc1c(N2CCOCC2=O)cccc1S(=O)(=O)N[C@@H](CNC(=O)c1csc(Cl)c1)C(=O)N1CCOC[C@@H]1C [Example 2, 5-Chloro-thiophene-3-carboxylic acid [(S)-2-[2-ethyl-3-(3-oxo-morpholin-4-yl)-benzenesulfonylamino]-3-((S)-3-methyl-morpholin-4-yl)-3-oxo-propyl]-amide]
1.48 nM	55 nM	CCc1c(N2CCOCC2=O)cccc1S(=O)(=O)N[C@@H](CNC(=O)c1ccc(Cl)s1)C(=O)N1CCO[C@H](C)C1 [Example 3, 5-Chloro-thiophene-2-carboxylic acid [(S)-2-[2-ethyl-3-(3-oxo-morpholin-4-yl)-benzenesulfonylamino]-3-((R)-2-methyl-morpholin-4-yl)-3-oxo-propyl]-amide]
2.8 nM	61 nM	CCc1c(N2CCOCC2=O)cccc1S(=O)(=O)N[C@@H](CNC(=O)c1ccc(Cl)s1)C(=O)N1CCC[C@@H](OC)C1 [Example 4, 5-Chloro-thiophene-2-carboxylic acid [(S)-2-[2-ethyl-3-(3-oxo-morpholin-4-yl)-benzenesulfonylamino]-3-((R)-3-methoxy-piperidin-1-yl)-3-oxo-propyl]-amide]
9.8 nM	49 nM	O=C(NC[C@H](NS(=O)(=O)c1cccc(N2CCOCC2=O)c1Cl)C(=O)N1CCCCCC1)c1ccc(Cl)s1 [Example 5, 5-Chloro-thiophene-2-carboxylic acid {(S)-3-azepan-1-yl-2-[2-chloro-3-(3-oxo-morpholin-4-yl)-benzenesulfonylamino]-3-oxo-propyl}-amide]
0.88 nM	5.64 nM	COc1c(N2CCOCC2=O)cc(F)cc1S(=O)(=O)N[C@@H](CNC(=O)c1ccc(Cl)s1)C(=O)N1CCCCCC1 [Example 6, 5-Chloro-thiophene-2-carboxylic acid {(S)-3-azepan-1-yl-2-[5-fluoro-2-methoxy-3-(3-oxo-morpholin-4-yl)-benzenesulfonylamino]-3-oxo-propyl}-amide]
1.02 nM	222 nM	O=C(NC[C@H](NS(=O)(=O)c1cccc(N2CCCCC2=O)c1C(F)(F)F)C(=O)N1CCN(C2CC2)CC1)c1ccc(Cl)s1 [Example 7, 5-Chloro-thiophene-2-carboxylic acid {(S)-3-(4-cyclopropyl-piperazin-1-yl)-3-oxo-2-[3-(2-oxo-piperidin-1-yl)-2-trifluoromethyl-benzenesulfonylamino]propyl}amide trifluoroacetate]
0.98 nM	10.4 nM	O=C(NC[C@H](NS(=O)(=O)c1cccc(N2CCCCC2=O)c1OC(F)F)C(=O)N1CCN(C2CC2)CC1)c1ccc(Cl)s1 [Example 8, 5-Chloro-thiophene-2-carboxylic acid {(S)-3-(4-cyclopropyl-piperazin-1-yl)-2-[2-difluoromethoxy-3-(2-oxo-piperidin-1-yl)-benzenesulfonylamino]-3-oxo-propyl}-amide trifluoroacetate]
0.52 nM	10.5 nM	CCOC(=O)C1CCN(C(=O)[C@H](CNC(=O)c2ccc(Cl)s2)NS(=O)(=O)c2cccc(N3CCCCC3=O)c2OC(F)F)CC1 [Example 9, 1-{(S)-3-[(5-Chloro-thiophene-2-carbonyl)-amino]-2-[2-difluoromethoxy-3-(2-oxo-piperidin-1-yl)-benzenesulfonylamino]-propionyl}-piperidine-4-carboxylic acid ethyl ester]
1.74 nM	381 nM	Cc1noc(C2CCN(C(=O)[C@H](CNC(=O)c3ccc(Cl)s3)NS(=O)(=O)c3cccc(N4CCCCC4=O)c3OC(F)F)CC2)n1 [Example 11, 5-Chloro-thiophene-2-carboxylic acid {(S)-2-[2-difluoromethoxy-3-(2-oxo-piperidin-1-yl)-benzenesulfonylamino]-3-[4-(3-methyl-[1,2,4]oxadiazol-5-yl)-piperidin-1-yl]-3-oxo-propyl}amide]
1.44 nM	19 nM	CN1CCN(C(=O)[C@H](CNC(=O)c2ccc(Cl)s2)NS(=O)(=O)c2cc(F)cc(N3CCCC3)c2Cl)CC1 [Example 13, 5-Chloro-thiophene-2-carboxylic acid [(S)-2-(2-chloro-5-fluoro-3-pyrrolidin-1-yl-benzenesulfonylamino)-3-(4-methyl-piperazin-1-yl)-3-oxo-propyl]-amide trifluoro acetate]
1.32 nM	658 nM	O=C(NC[C@H](NS(=O)(=O)c1cccc(N2CCCC2=O)c1Cl)C(=O)N1CCNCC1)c1ccc(Cl)s1 [Example 15, 5-Chloro-thiophene-2-carboxylic acid {(S)-2-[2-chloro-3-(2-oxo-pyrrolidin-1-yl)-benzenesulfonylamino]-3-oxo-3-piperazin-1-yl-propyl}-amide]
1.3 nM	54 nM	COCCN1CCN(C(=O)[C@H](CNC(=O)c2ccc(Cl)s2)NS(=O)(=O)c2cc(F)cc(N3CCCC3=O)c2C)CC1 [Example 16, 5-Chloro-thiophene-2-carboxylic acid {(S)-2-[5-fluoro-2-methyl-3-(2-oxo-pyrrolidin-1-yl)-benzenesulfonylamino]-3-[4-(2-methoxy-ethyl)-piperazin-1-yl]-3-oxo-propyl}-amide trifluoro acetate]
1.81 nM	28 nM	CN1CCN(C(=O)[C@H](CNC(=O)c2ccc(Cl)s2)NS(=O)(=O)c2cccc(N3CCCC3=O)c2C(F)F)CC1 [Example 17, 5-Chloro-thiophene-2-carboxylic acid [(S)-2-[2-difluoromethyl-3-(2-oxo-pyrrolidin-1-yl)-benzenesulfonylamino]-3-(4-methyl-piperazin-1-yl)-3-oxo-propyl]-amide trifluoro acetate]
1.92 nM	3.48 nM	Cc1c(N2CCCC2=O)cccc1S(=O)(=O)N[C@@H](CNC(=O)c1ccc(Cl)s1)C(=O)N1CCc2sccc2C1 [Example 154, 5-Chloro-thiophene-2-carboxylic acid {(S)-3-(6,7-dihydro-4H-thieno[3,2-c]pyridin-5-yl)-2-[2-methyl-3-(2-oxo-pyrrolidin-1-yl)-benzenesulfonylamino]-3-oxo-propyl}-amide]
0.4 nM	40 nM	O=C(NC[C@H](NS(=O)(=O)c1cc(F)cc(N2CCCCC2=O)c1Cl)C(=O)N1CCN(CC(F)(F)F)CC1)c1ccc(Cl)s1 [Example 183, 5-Chloro-thiophene-2-carboxylic acid {(S)-2-[2-chloro-5-fluoro-3-(2-oxo-piperidin-1-yl)-benzenesulfonylamino]-3-oxo-3-[4-(2,2,2-trifluoro-ethyl)-piperazin-1-yl]-propyl}-amide]
1.31 nM	27 nM	Cc1c(N2CCCC2=O)cc(F)cc1S(=O)(=O)N[C@@H](CNC(=O)c1ccc(Cl)s1)C(=O)N1CCN(C)CC1 [Example 202, 5-Chloro-thiophene-2-carboxylic acid [(S)-2-[5-fluoro-2-methyl-3-(2-oxo-pyrrolidin-1-yl)-benzenesulfonylamino]-3-(4-methyl-piperazin-1-yl)-3-oxo-propyl]-amide]
